molecular target: T1, full length AKT E17K (Homo sapiens, UniProt P31749, E17K); assay: NanoBRET Target Engagement (TE) Assay; format: cell-based; conditions: competitive displacement of tracer in cells, read-out: AKT1 E17K IC50
T1 construct: host or cells: HEK-293 (ATCC CRL-1573)
How it was run: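 Compound and tracer incubated 2 h before luminescence at donor 450 nm and acceptor 600 nm, with extracellular signal inhibited. EC50 by sigmoidal variable-slope regression.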

T1 sequence (P31749 whole entry E17K): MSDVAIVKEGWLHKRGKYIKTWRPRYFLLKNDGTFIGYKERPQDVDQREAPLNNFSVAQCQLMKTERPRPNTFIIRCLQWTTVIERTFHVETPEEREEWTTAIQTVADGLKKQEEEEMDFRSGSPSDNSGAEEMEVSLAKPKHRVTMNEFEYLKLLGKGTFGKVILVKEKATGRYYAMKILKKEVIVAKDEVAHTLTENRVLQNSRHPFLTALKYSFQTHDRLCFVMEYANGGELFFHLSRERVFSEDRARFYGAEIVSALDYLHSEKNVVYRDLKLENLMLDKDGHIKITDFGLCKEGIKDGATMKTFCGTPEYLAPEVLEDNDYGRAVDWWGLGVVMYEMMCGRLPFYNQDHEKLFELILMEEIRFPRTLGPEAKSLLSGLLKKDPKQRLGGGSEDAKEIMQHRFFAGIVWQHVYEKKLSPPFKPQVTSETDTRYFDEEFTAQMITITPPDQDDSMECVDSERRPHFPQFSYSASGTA

Compared with `Cc1noc(C)c1-c1ccc2nc(-c3cccnc3N)n(-c3ccc(CN4CCC(Nc5ccnc(C#N)n5)CC4)cc3)c2n1` [Example 473, 4-((1-(4-(2-(2-Aminopyridin-3-yl)-5-(3,5-dimethylisoxazol-4-yl)-3H-imidazo[4,5-b]pyridin-3-yl)benzyl)piperidin-4-yl)amino)pyrimidine-2-carbonitrile], `CNc1ccc2nc(-c3cccnc3N)n(-c3ccc(CN4CCC(Nc5ccnc(C#N)n5)CC4)cc3)c2n1` [Example 457, 4-((1-(4-(2-(2-Aminopyridin-3-yl)-5-(methylamino)-3H-imidazo[4,5-b]pyridin-3-yl)benzyl)piperidin-4-yl)amino)pyrimidine-2-carbonitrile] is higher in IC50: less than 15 nM for the first, 15 to 60 nM for the second.

`N#Cc1nccc(NC2CCN(Cc3ccc(-n4c(-c5cccnc5N)nc5ccc(-c6ncc(F)cn6)nc54)cc3)CC2)n1` [Example 603, 4-((1-(4-(2-(2-Aminopyridin-3-yl)-5-(5-fluoropyrimidin-2-yl)-3H-imidazo[4,5-b]pyridin-3-yl)benzyl)piperidin-4-yl)amino)pyrimidine-2-carbonitrile] and `N#Cc1nccc(NC2CCN(Cc3ccc(-n4c(-c5cccnc5N)nc5ccc(-c6cnccc6F)nc54)cc3)CC2)n1` [Example 595, 4-((1-(4-(2-(2-Aminopyridin-3-yl)-5-(4-fluoropyridin-3-yl)-3H-imidazo[4,5-b]pyridin-3-yl)benzyl)piperidin-4-yl)amino)pyrimidine-2-carbonitrile] cannot be ordered by IC50: less than 15 nM for the first, less than 15 nM for the second.

`N#Cc1nccc(NC2CCN(Cc3ccc(-n4c(-c5cccnc5N)nc5ccc(-c6ccc(C7CC7)nc6)nc54)cc3)CC2)n1` [Example 587, 4-((1-(4-(2-(2-Aminopyridin-3-yl)-5-(6-cyclopropylpyridin-3-yl)-3H-imidazo[4,5-b]pyridin-3-yl)benzyl)piperidin-4-yl)amino)pyrimidine-2-carbonitrile] and `N#Cc1ccc(-c2ccc3nc(-c4cccnc4N)n(-c4ccc(CN5CCC(Nc6ccnc(C#N)n6)CC5)cc4)c3n2)cn1` [Example 419, 4-((1-(4-(2-(2-Aminopyridin-3-yl)-5-(6-cyanopyridin-3-yl)-3H-imidazo[4,5-b]pyridin-3-yl)benzyl)piperidin-4-yl)amino)pyrimidine-2-carbonitrile] cannot be ordered by IC50: less than 15 nM for the first, less than 15 nM for the second.

First: N#Cc1nccc(NC2CCN(Cc3ccc(-n4c(-c5cccnc5N)nc5cncnc54)cc3)CC2)n1 [Example 505, 4-((1-(4-(8-(2-Aminopyridin-3-yl)-9H-purin-9-yl)benzyl)piperidin-4-yl)amino)pyrimidine-2-carbonitrile]
Second: N#Cc1nccc(NC2CCN(Cc3ccc(-n4c(-c5cccnc5N)nc5cc(F)cnc54)cc3)CC2)n1 [Example 402, 4-((1-(4-(2-(2-Aminopyridin-3-yl)-6-fluoro-3H-imidazo[4,5-b]pyridin-3-yl)benzyl)piperidin-4-yl)amino)pyrimidine-2-carbonitrile]
The IC50 of the first is higher: 60 to 600 nM for the first, less than 15 nM for the second. The second is the more potent here.

First: N#Cc1nccc(NC2CCN(Cc3ccc(-n4c(-c5cccnc5N)nc5ccc(-c6ccccc6C(F)(F)F)nc54)cc3)CC2)n1 [Example 470, 4-((1-(4-(2-(2-Aminopyridin-3-yl)-5-(2-(trifluoromethyl)phenyl)-3H-imidazo[4,5-b]pyridin-3-yl)benzyl)piperidin-4-yl)amino)pyrimidine-2-carbonitrile]
Second: N#Cc1nccc(NC2CCN(Cc3ccc(-n4c(-c5cccnc5N)nc5ccc(-c6ccc(F)cc6C#N)nc54)cc3)CC2)n1 [Example 525, 4-((1-(4-(2-(2-Aminopyridin-3-yl)-5-(2-cyano-4-fluorophenyl)-3H-imidazo[4,5-b]pyridin-3-yl)benzyl)piperidin-4-yl)amino)pyrimidine-2-carbonitrile]
The IC50 of the first is higher: 60 to 600 nM for the first, 15 to 60 nM for the second. The second is the more potent here.

Compared with `N#Cc1nccc(NC2CCN(Cc3ccc(-n4c(-c5nccnc5N)nc5ccc(-c6cnn(CC(N)=O)n6)nc54)cc3)CC2)n1` [Example 633, 2-(4-(2-(3-aminopyrazin-2-yl)-3-(4-((4-((2-cyanopyrimidin-4-yl)amino)piperidin-1-yl)methyl)phenyl)-3H-imidazo[4,5-b]pyridin-5-yl)-2H-1,2,3-triazol-2-yl)acetamide], `CCn1ncc(-c2ccc3nc(-c4nccnc4N)n(-c4ccc(CN5CCC(Nc6ccnc(C#N)n6)CC5)cc4)c3n2)n1` [Example 629, 4-((1-(4-(2-(3-Aminopyrazin-2-yl)-5-(2-ethyl-2H-1,2,3-triazol-4-yl)-3H-imidazo[4,5-b]pyridin-3-yl)benzyl)piperidin-4-yl)amino)pyrimidine-2-carbonitrile] is lower in IC50: 15 to 60 nM for the first, less than 15 nM for the second.

`N#Cc1ncnc(N2CCN(Cc3ccc(-n4c(-c5cccnc5N)nc5ccc(-c6ccc(F)cc6)nc54)cc3)CC2)n1` [Example 368, 4-(4-(4-(2-(2-Aminopyridin-3-yl)-5-(4-fluorophenyl)-3H-imidazo[4,5-b]pyridin-3-yl)benzyl)piperazin-1-yl)-1,3,5-triazine-2-carbonitrile] and `N#Cc1ncnc(NC2CCN(Cc3ccc(-n4c(-c5cccnc5N)nc5ccc(-c6ccc(F)cc6)nc54)cc3)CC2)n1` [Example 487, 4-((1-(4-(2-(2-Aminopyridin-3-yl)-5-(4-fluorophenyl)-3H-imidazo[4,5-b]pyridin-3-yl)benzyl)piperidin-4-yl)amino)-1,3,5-triazine-2-carbonitrile] cannot be ordered by IC50: less than 15 nM for the first, less than 15 nM for the second.

First: COC(=O)c1ccc2nc(-c3cccnc3N)n(-c3ccc(CN4CCC(Nc5ccnc(C#N)n5)CC4)cc3)c2n1 [Example 414, Methyl 2-(2-aminopyridin-3-yl)-3-(4-((4-((2-cyanopyrimidin-4-yl)amino)piperidin-1-yl)methyl)phenyl)-3H-imidazo[4,5-b]pyridine-5-carboxylate]
Second: N#Cc1ccc(-c2ccc3nc(-c4cccnc4N)n(-c4ccc(CN5CCC(Nc6ccnc(C#N)n6)CC5)cc4)c3n2)nc1 [Example 418, 4-((1-(4-(2-(2-Aminopyridin-3-yl)-5-(5-cyanopyridin-2-yl)-3H-imidazo[4,5-b]pyridin-3-yl)benzyl)piperidin-4-yl)amino)pyrimidine-2-carbonitrile]
The IC50 of the first is lower: less than 15 nM for the first, 15 to 60 nM for the second. The first is the more potent here.

Work on `N#Cc1nccc(N2CCC3(CCN(Cc4ccc(-n5c(-c6cccnc6N)nc6ccc(-c7ccccc7)nc65)cc4)CC3)CC2)n1` [Example 364, 4-(9-(4-(2-(2-Aminopyridin-3-yl)-5-phenyl-3H-imidazo[4,5-b]pyridin-3-yl)benzyl)-3,9-diazaspiro[5.5]undecan-3-yl)pyrimidine-2-carbonitrile] yielded an IC50 of 15 to 60 nM.

same assay, conditions: competitive tracer displacement in living cells, read-out: AKT1 E17K IC50

First: N#Cc1nccc(N2CCN(Cc3ccc(-n4c(-c5cccnc5N)nc5ccc(-c6ccc[nH]c6=O)nc54)cc3)CC2)n1 [Example 259, 4-(4-(4-(2-(2-Aminopyridin-3-yl)-5-(2-oxo-1,2-dihydropyridin-3-yl)-3H-imidazo[4,5-b]pyridin-3-yl)benzyl)piperazin-1-yl)pyrimidine-2-carbonitrile]
Second: N#Cc1ccc(-c2ccc3nc(-c4cccnc4N)n(-c4ccc(CN5CCN(c6ccnc(C#N)n6)CC5)cc4)c3n2)cc1 [Example 294, 4-(4-(4-(2-(2-Aminopyridin-3-yl)-5-(4-cyanophenyl)-3H-imidazo[4,5-b]pyridin-3-yl)benzyl)piperazin-1-yl)pyrimidine-2-carbonitrile]
The IC50 of the first is lower: less than 15 nM for the first, 15 to 60 nM for the second. The first is the more potent here.

Compared with `N#Cc1ncnc(NC2CN(Cc3ccc(-n4c(-c5cccnc5N)nc5ccc(-c6ccccc6)nc54)cc3)C2)n1` [Example 300, 4-((1-(4-(2-(2-Aminopyridin-3-yl)-5-phenyl-3H-imidazo[4,5-b]pyridin-3-yl)benzyl)azetidin-3-yl)amino)-1,3,5-triazine-2-carbonitrile], `N#Cc1ncnc(N2CC3(CCN(Cc4ccc(-n5c(-c6cccnc6N)nc6ccc(-c7ccccc7)nc65)cc4)C3)C2)n1` [Example 301, 4-(6-(4-(2-(2-Aminopyridin-3-yl)-5-phenyl-3H-imidazo[4,5-b]pyridin-3-yl)benzyl)-2,6-diazaspiro[3.4]octan-2-yl)-1,3,5-triazine-2-carbonitrile] is lower in IC50: 15 to 60 nM for the first, less than 15 nM for the second. The second is the more potent here.

First: N#Cc1nccc(N2CCN(Cc3ccc(-n4c(-c5cccnc5N)nc5ccc(N6CCOCC6)nc54)cc3)CC2)n1 [Example 235, 4-(4-(4-(2-(2-Aminopyridin-3-yl)-5-morpholino-3H-imidazo[4,5-b]pyridin-3-yl)benzyl)piperazin-1-yl)pyrimidine-2-carbonitrile]
Second: COc1ccc2nc(-c3cccnc3N)n(-c3ccc(CN4CCC(Nc5ccnc(C#N)n5)CC4)cc3)c2n1 [Example 287, 4-((1-(4-(2-(2-Aminopyridin-3-yl)-5-methoxy-3H-imidazo[4,5-b]pyridin-3-yl)benzyl)piperidin-4-yl)amino)pyrimidine-2-carbonitrile]
The IC50 of the first is higher: 60 to 600 nM for the first, less than 15 nM for the second. The second is the more potent here.

Compared with `N#Cc1ccc(C(=O)NC2CCN(Cc3ccc(-n4c(-c5cccnc5N)nc5ccc(-c6ccccc6)nc54)cc3)CC2)cn1` [Example 167, N-(1-(4-(2-(2-Aminopyridin-3-yl)-5-phenyl-3H-imidazo[4,5-b]pyridin-3-yl)benzyl)piperidin-4-yl)-6-cyanonicotinamide], `N#Cc1ccc(C(=O)NC2CCN(Cc3ccc(-n4c(-c5cccnc5N)nc5cc(-c6ccccc6)cnc54)cc3)CC2)cn1` [Example 165, N-(1-(4-(2-(2-aminopyridin-3-yl)-6-phenyl-3H-imidazo[4,5-b]pyridin-3-yl)benzyl)piperidin-4-yl)-6-cyanonicotinamide] is higher in IC50: 60 to 600 nM for the first, 600 to 10000 nM for the second.

First: N#Cc1ncnc(N2CCC3(CCN(Cc4ccc(-n5c(-c6cccnc6N)nc6ccc(-c7ccccc7)nc65)cc4)C3)C2)n1 (stereo not drawn) [Example 251, 4-(7-(4-(2-(2-aminopyridin-3-yl)-5-phenyl-3H-imidazo[4,5-b]pyridin-3-yl)benzyl)-2,7-diazaspiro[4.4]nonan-2-yl)-1,3,5-triazine-2-carbonitrile]
Second: N#Cc1cncnc1C(=O)N1CCN(Cc2ccc(-n3c(-c4cccnc4N)nc4ccc(-c5ccccc5)nc43)cc2)CC1 [Example 72, 4-(4-(4-(2-(2-Aminopyridin-3-yl)-5-phenyl-3H-imidazo[4,5-b]pyridin-3-yl)benzyl)piperazine-1-carbonyl)pyrimidine-5-carbonitrile]
The IC50 of the first is lower: less than 15 nM for the first, 600 to 10000 nM for the second.

Source: patent US12209087B2, “AKT1 modulators” (Alterome Therapeutics, Inc., priority 2022, dated 2025)
